pIC50: −log10 of the molar value. Where only a bound is given, the exact number is not on record here.

This is an account of results in patent US20250326732A1 (Pretzel Therapeutics, Inc., priority 2021, published 2025).

POLRMT, sequence (O00411 42-1230): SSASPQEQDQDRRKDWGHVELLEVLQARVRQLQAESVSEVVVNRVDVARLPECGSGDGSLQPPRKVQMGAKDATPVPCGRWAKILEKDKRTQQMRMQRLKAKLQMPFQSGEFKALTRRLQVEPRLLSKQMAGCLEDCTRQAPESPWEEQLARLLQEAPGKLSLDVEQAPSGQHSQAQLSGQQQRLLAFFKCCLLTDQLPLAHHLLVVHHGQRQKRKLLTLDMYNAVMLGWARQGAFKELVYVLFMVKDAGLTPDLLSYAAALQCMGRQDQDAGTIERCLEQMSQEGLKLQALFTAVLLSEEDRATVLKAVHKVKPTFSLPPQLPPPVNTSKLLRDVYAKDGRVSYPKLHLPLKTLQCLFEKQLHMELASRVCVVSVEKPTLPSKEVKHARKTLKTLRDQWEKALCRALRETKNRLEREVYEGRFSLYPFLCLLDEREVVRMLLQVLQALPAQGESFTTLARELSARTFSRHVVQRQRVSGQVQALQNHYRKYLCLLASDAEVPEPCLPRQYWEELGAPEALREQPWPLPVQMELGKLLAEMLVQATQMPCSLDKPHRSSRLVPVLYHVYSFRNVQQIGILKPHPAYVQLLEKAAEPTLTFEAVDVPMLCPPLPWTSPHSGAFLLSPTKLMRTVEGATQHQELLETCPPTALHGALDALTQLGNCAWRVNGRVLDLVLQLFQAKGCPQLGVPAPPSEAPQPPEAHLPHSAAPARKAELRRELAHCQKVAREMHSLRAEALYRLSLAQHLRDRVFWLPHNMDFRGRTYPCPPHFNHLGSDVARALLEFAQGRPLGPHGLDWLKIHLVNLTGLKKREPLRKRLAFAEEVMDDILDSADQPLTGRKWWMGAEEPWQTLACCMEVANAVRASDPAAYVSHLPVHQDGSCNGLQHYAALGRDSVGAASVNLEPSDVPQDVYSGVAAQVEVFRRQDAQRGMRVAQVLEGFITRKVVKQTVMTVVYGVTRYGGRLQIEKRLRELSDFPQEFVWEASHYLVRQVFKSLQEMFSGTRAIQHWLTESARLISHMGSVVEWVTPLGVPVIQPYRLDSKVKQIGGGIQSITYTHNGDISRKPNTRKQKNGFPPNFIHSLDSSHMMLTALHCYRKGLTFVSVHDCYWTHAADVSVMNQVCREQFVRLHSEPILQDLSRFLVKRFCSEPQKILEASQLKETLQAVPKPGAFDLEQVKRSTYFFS

The assay deals with POLRMT (Homo sapiens (Human), UniProt O00411). Description: homogeneous TR-FRET assay of mitochondrial transcription (inhibition of POLRMT). The format is biochemical. The following applies: 7.5 nM POLRMT, 15 nM TFB2M, 30 nM TFAM, 0.5 nM DNA template, 500 μM NTPs, 37° C. for 60 minutes. The method, boiled down:
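POLRMT transcription from linearized pUC-LSP DNA template; RNA product detected by hybridization of ATTO647 acceptor (1 nM) and biotinylated donor (3 nM) probes plus Europium-streptavidin. Reaction stopped with EDTA/700 mM NaCl buffer, pH 7.5.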
For orientation: Time-resolved FRET reads energy transfer from a long-lived donor to a nearby acceptor.
As to `CC(=O)N(C)CC1CCN(C(=O)c2ccc3c(-c4ccccc4C)cc(=O)oc3c2)C1` (stereo not shown) [Example 205, N-methyl-N-((1-(2-oxo-4-(o-tolyl)-2H-chromene-7-carbonyl)pyrrolidin-3-yl)methyl)acetamide], the pIC50 is below 4.00.

In turn, `Cc1ccccc1-c1cc(=O)oc2cc(CC(C)C(=O)N3CCC[C@H](S(N)(=O)=O)C3)ccc12` (single isomer, unassigned) [Example 97] had a pIC50 of 6.52. With `Cc1ccccc1-c1cc(=O)oc2cc(N(C)Cc3ccccn3)ccc12` [Example 168, 7-(methyl(pyridin-2-ylmethyl)amino)-4-(o-tolyl)-2H-chromen-2-one] the figure was 7.05; with `COCC(Cc1ccc2c(-c3ccccc3C)cc(=O)oc2c1)C(N)=O` (single isomer, unassigned) [Example 207, 3-methoxy-2-((2-oxo-4-(o-tolyl)-2H-chromen-7-yl)methyl)propanamide], 4.77; with `C[C@@H](Nc1ccc2c(-c3ccc(F)cc3Cl)cc(=O)oc2c1)C(=O)N1CCOCC1` [Example 47, (R)-4-(2-chloro-4-fluorophenyl)-7-((1-morpholino-1-oxopropan-2-yl)amino)-2H-chromen-2-one], 6.40. With `CCOC(=O)[C@H]1CCCN(C(=O)C(C)Cc2ccc3c(-c4ccccc4C)cc(=O)oc3c2)C1` (single isomer, unassigned) [Example 88] the figure was 7.05.

For `Cc1ccccc1-c1cc(=O)oc2cc(NCC(=O)OC(C)(C)C)ccc12` [Example 61, tert-butyl (2-oxo-4-(o-tolyl)-2H-chromen-7-yl)glycinate], the pIC50 was 6.05. With `Cc1ccccc1-c1cc(=O)oc2cc(NCc3nccs3)ccc12` [Example 165, 7-((thiazol-2-ylmethyl)amino)-4-(o-tolyl)-2H-chromen-2-one] the figure was 5.52. Next, `Cc1ccccc1-c1cc(=O)oc2cc(N(C)Cc3ccc(=O)[nH]c3)ccc12` [Example 209, 5-((methyl(2-oxo-4-(o-tolyl)-2H-chromen-7-yl)amino)methyl)pyridin-2 (1H)-one]: 6.52. Next, `Cc1ccccc1-c1cc(=O)oc2cc([C@@H]3C[C@H]3C(N)=O)ccc12` (relative stereo) [Example 238, chiral-(trans)-2-(2-oxo-4-(o-tolyl)-2H-chromen-7-yl)cyclopropane-1-carboxamide]: 5.52. On to `COCC1CN(C(=O)c2ccc3c(-c4ccccc4C)cc(=O)oc3c2)C1` [Example 115, 7-(3-(methoxymethyl)azetidine-1-carbonyl)-4-(o-tolyl)-2H-chromen-2-one], for which the pIC50 is 4.74.

`COCc1cc(C)c2c(-c3ccccc3C)cc(=O)oc2c1` [Example 163, 7-(methoxymethyl)-5-methyl-4-(o-tolyl)-2H-chromen-2-one]: the pIC50 is 6.30. Next, `C[C@@H](Nc1ccc2c(-c3ccc(F)cc3Cl)cc(=O)oc2c1)C(=O)N1CCCCC1` [Example 27, (R)-4-(2-chloro-4-fluorophenyl)-7-((1-oxo-1-(piperidin-1-yl)propan-2-yl)amino)-2H-chromen-2-one]: 7.00. Next, `COCC(Nc1ccc2c(-c3ccccc3C)cc(=O)oc2c1)C(N)=O` (stereo not shown) [Example 199, 3-methoxy-2-((2-oxo-4-(o-tolyl)-2H-chromen-7-yl)amino)propanamide]: 6.10; `Cc1ccccc1-c1cc(=O)oc2cc(N(C)[C@H](C)C(=O)N3CCC[C@H](C(=O)O)C3)ccc12` [Example 75, (S)-1-(N-methyl-N-(2-oxo-4-(o-tolyl)-2H-chromen-7-yl)-D-alanyl)piperidine-3-carboxylic acid]: 7.52. With `COC[C@H](Nc1ccc2c(-c3ccccc3C)cc(=O)oc2c1)C(=O)O` [Example 102, O-methyl-N-(2-oxo-4-(o-tolyl)-2H-chromen-7-yl) serine] the figure was 5.52; with `CN(CCC(=O)O)c1ccc2c(-c3ccc(F)cc3Cl)cc(=O)oc2c1` [Example 130, 3-((4-(2-chloro-4-fluorophenyl)-2-oxo-2H-chromen-7-yl)(methyl)amino)propanoic acid], 6.40; with `Cc1ccccc1-c1cc(=O)oc2cc(CN(C)C(=O)C3CCC(C(=O)O)CC3)ccc12` [Example 156, (1R,4R)-4-(methyl((2-oxo-4-(o-tolyl)-2H-chromen-7-yl)methyl)carbamoyl)cyclohexane-1-carboxylic acid], 6.70. On to `Cc1ccccc1-c1cc(=O)oc2cc(C(=O)N3CC(C)(CO)C3)ccc12` [Example 124, 7-(3-(hydroxymethyl)-3-methylazetidine-1-carbonyl)-4-(o-tolyl)-2H-chromen-2-one], for which the pIC50 was 5.52. Next, `CC(=O)Nc1ccc2c(-c3ccccc3C)cc(=O)oc2c1` [Example 32, N-(2-oxo-4-(o-tolyl)-2H-chromen-7-yl)acetamide]: 6.40; `Cc1ccccc1-c1cc(=O)oc2cc(C(=O)N(C)C)ccc12` [Example 34, N,N-dimethyl-2-oxo-4-(o-tolyl)-2H-chromene-7-carboxamide]: 5.70. With `Cc1cc(O[C@H](C)C(=O)N2CCCCC2)c2c(-c3ccc(F)cc3)cc(=O)oc2c1` [Example 161, (R)-4-(4-fluorophenyl)-7-methyl-5-((1-oxo-1-(piperidin-1-yl)propan-2-yl)oxy)-2H-chromen-2-one] the figure was below 4.00; with `Cc1ccccc1-c1cc(=O)oc2cc(N(C)Cc3nccs3)ccc12` [Example 167, 7-(methyl(thiazol-2-ylmethyl)amino)-4-(o-tolyl)-2H-chromen-2-one], 7.00.

Turning to `Cc1ccccc1-c1cc(=O)oc2cc(N(C)CC(=O)NCC(N)=O)ccc12` [Example 134, N-(2-amino-2-oxoethyl)-2-(methyl(2-oxo-4-(o-tolyl)-2H-chromen-7-yl)amino)acetamide], the pIC50 was 6.70. Next, `Cc1ccccc1-c1cc(=O)oc2cc(N(C)CC(=O)O)ccc12` [Example 76, N-methyl-N-(2-oxo-4-(o-tolyl)-2H-chromen-7-yl)glycine]: 6.70; `Cc1ccccc1-c1cc(=O)oc2cc(N(C)Cc3ccccc3)ccc12` [Example 126, 7-[benzyl(methyl)amino]-4-(o-tolyl) chromen-2-one]: 7.30; `Cc1ccccc1-c1cc(=O)oc2cc(C#N)ccc12` [Example 43, 2-oxo-4-(o-tolyl)-2H-chromene-7-carbonitrile]: 4.89. With `Cc1ccccc1-c1cc(=O)oc2cc(CC(C)C(=O)N3CCCCC3)ccc12` (single isomer, unassigned) [Example 63, 7-(2-methyl-3-oxo-3-(piperidin-1-yl)propyl)-4-(o-tolyl)-2H-chromen-2-one] the figure was 5.52; with `CCOC(C)c1ccc2c(-c3ccc(F)cc3Cl)cc(=O)oc2c1` (single isomer, unassigned) [Example 41, 4-(2-chloro-4-fluorophenyl)-7-(1-ethoxyethyl)-2H-chromen-2-one], 6.00.

Take `Cc1ccccc1-c1cc(=O)oc2cc(NCC(C)(C)C(=O)O)ccc12` [Example 127, 2,2-dimethyl-3-((2-oxo-4-(o-tolyl)-2H-chromen-7-yl)amino)propanoic acid]: the pIC50 is 6.70. `Cc1ccccc1-c1cc(=O)oc2cc(C(C)N(C)C)ccc12` (stereo not shown) [Example 78, 7-(1-(dimethylamino)ethyl)-4-(o-tolyl)-2H-chromen-2-one] had a pIC50 of 4.36. With `Cc1ccccc1-c1cc(=O)oc2cc(CN(C)C(=O)N3CCC[C@H](C(=O)O)C3)ccc12` [Example 146, (S)-1-(methyl((2-oxo-4-(o-tolyl)-2H-chromen-7-yl)methyl)carbamoyl)piperidine-3-carboxylic acid] the figure was 6.52; with `Cc1ccccc1-c1cc(=O)oc2cc(CC(C)C(=O)N(C)C)ccc12` (single isomer, unassigned) [Example 64, N,N,2-trimethyl-3-(2-oxo-4-(o-tolyl)-2H-chromen-7-yl)propanamide], 6.52. In turn, `C[C@@H](Cc1ccc2c(-c3ccc(F)cc3Cl)cc(=O)oc2c1)C(=O)N1CCC[C@H](C(=O)O)C1` [Example 186, (S)-1-((S)-3-(4-(2-chloro-4-fluorophenyl)-2-oxo-2H-chromen-7-yl)-2-methylpropanoyl)piperidine-3-carboxylic acid] had a pIC50 of 4.55.

`Cc1cc(O[C@H](C)C(=O)N(C)C)c2c(-c3ccc(F)cc3)cc(=O)oc2c1` [Example 162, (R)-2-((4-(4-fluorophenyl)-7-methyl-2-oxo-2H-chromen-5-yl)oxy)-N,N-dimethylpropanamide] had a pIC50 below 4.00. Next, `Cc1ccccc1-c1cc(=O)oc2cc([C@H]3C[C@H]3C(=O)O)ccc12` (racemic) [Example 226, (cis)-2-(2-oxo-4-(o-tolyl)-2H-chromen-7-yl)cyclopropane-1-carboxylic acid]: 6.40; `C[C@@H](Cc1ccc2c(-c3ccc(F)cc3Cl)cc(=O)oc2c1)C(=O)N1CCCCC1` [Example 18, (S)-4-(2-chloro-4-fluorophenyl)-7-(2-methyl-3-oxo-3-(piperidin-1-yl)propyl)-2H-chromen-2-one]: 6.70.

As to `Cc1ccccc1-c1cc(=O)oc2cc([C@H]3C[C@H]3C(N)=O)ccc12` (relative stereo) [Example 235, (cis)-2-(2-oxo-4-(o-tolyl)-2H-chromen-7-yl)cyclopropane-1-carboxamide], the pIC50 was 5.70. Next, `Cc1ccccc1-c1cc(=O)oc2cc(N(C)Cc3ccon3)ccc12` [Example 204, 7-((isoxazol-3-ylmethyl)(methyl)amino)-4-(o-tolyl)-2H-chromen-2-one]: 7.52. Molecule `Cc1ccccc1-c1cc(=O)oc2cc(NCC(=O)N3CCCCC3)ccc12` [Example 72, 7-((2-oxo-2-(piperidin-1-yl)ethyl)amino)-4-(o-tolyl)-2H-chromen-2-one] showed a pIC50 of 5.52.

What is called pIC50 is −log10 of the IC50, conventionally taken in molar units.
